# Source: article PMC8698320, “Inhibition of MurA Enzyme from Escherichia coli and Staphylococcus aureus by Diterpenes from Lepechinia meyenii and Their Synthetic Analogs” (Antibiotics, 2021)
# Values joined by “and” are separate entries in the source; they are usually repeats but may differ in a detail not shown here. Equal entries are not always repeated. Where two headings read alike, the source gives them in different places.
# How the values were obtained:
# [1] = molecular target: T1, Staphylococcus aureus MurA (Staphylococcus aureus, UniProt Q931H5); assay: biochemical; conditions: for remaining activity at 100 µM: 10 min
# T1 construct: made in house; host or cells: E. coli
# T1 sequence (Q931H5 1-421): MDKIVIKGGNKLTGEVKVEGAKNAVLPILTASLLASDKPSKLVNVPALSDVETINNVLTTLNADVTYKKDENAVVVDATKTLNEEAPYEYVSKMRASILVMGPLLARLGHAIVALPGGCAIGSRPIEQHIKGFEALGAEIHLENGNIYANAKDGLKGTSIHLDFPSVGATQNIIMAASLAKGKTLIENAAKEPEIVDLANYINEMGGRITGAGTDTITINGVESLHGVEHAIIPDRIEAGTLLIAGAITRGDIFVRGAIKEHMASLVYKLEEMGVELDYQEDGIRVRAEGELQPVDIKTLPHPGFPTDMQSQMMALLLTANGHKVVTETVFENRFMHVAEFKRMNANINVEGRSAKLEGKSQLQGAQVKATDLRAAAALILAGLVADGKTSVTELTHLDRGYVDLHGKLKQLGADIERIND
# Experimental: (§1) Polymyxin, UDP-GlcNAc, D-Ala-D-Ala, PEP, ATP and Hepes were purchased from Sigma-Aldrich Co. (St Louis, MO, USA). UDP-MurNAc-L-Ala-D-Glu-m-DAP was obtained from BACWAN facility, School of Life Sciences, The University of Warwick, UK. MurA from E. coli and S. aureus were recombinant, expressed in E. coli, while MurF from E. coli and S. aureus were recombinant expressed in E. coli.
# MurA inhibition was determined with the colorimetric malachite green method in which the release of orthophosphate generated during the reaction is measured. […] Time-dependent inhibition assays were also performed. MurA was preincubated with substrate UDP-GlcNAc and target compounds for 10 min at 37 °C, and then the reaction was started by the addition of the second substrate PEP, resulting in a mixture with a final volume of 50 µL as above described. MurF was preincubated with compounds for 10 min at 37 °C, and the reaction was started by the addition of the above-mentioned substrates to get a mixture with a final volume of 50 µL, as already described. In both experiments, after incubation for 15 min at 37 °C, the reaction was stopped by adding Biomol® reagent (100 µL, Enzo Life Sciences, Inc., Farmingdale, NY, USA). The absorbance was measured at 650 nm after 5 min in a microplate reader (Synergy H4). The final concentration of DMSO in the reaction mixture was 5% (v/v). Fosfomycin was used as a reference in MurA assay. The percentage of RA was calculated in comparison to negative controls containing only 5% DMSO. […] The results are expressed as mean ± standard error.
# Escherichia coli MurA = molecular target: T2, Escherichia coli MurA (Escherichia coli, UniProt P0A749); assay: MurA inhibition, colorimetric malachite green method; format: biochemical; conditions: for remaining activity at 100 µM: 10 min, residual activity at 100 µM, read-out: RA % Escherichia coli MurA
# T2 construct: made in house; host or cells: E. coli
# Experimental: as §1
# MurA inhibition was determined with the colorimetric malachite green method in which the release of orthophosphate generated during the reaction is measured. Briefly, 2.5 µL of each tested compound previously dissolved in DMSO at a concentration of […], were added in duplicate to 50 µL of the reaction mixture containing 50 mM HEPES pH 7.8, 0.005% Triton X-114, 200 µM UDP-GlcNAc, 100 µM PEP and purified MurA (200 nM) diluted in 50 mM Hepes at pH 7.8. The 50 µL reaction mixture for MurF inhibitory assay contained 50 mM Hepes pH 8.0, 50 mM MgCl2, 0.005% Triton X-114, 600 µM D-Ala-D-Ala, 100 µM UDP-MurNAc-L-Ala-D-Glu-m-DAP, 500 µM ATP and purified MurF (8 nM). Time-dependent inhibition assays were also performed. MurA was preincubated with substrate UDP-GlcNAc and target compounds for 10 min at 37 °C, and then the reaction was started by the addition of the second substrate PEP, resulting in a mixture with a final volume of 50 µL as above described. MurF was preincubated with compounds for 10 min at 37 °C, and the reaction was started by the addition of the above-mentioned substrates to get a mixture with a final volume of 50 µL, as already described. In both experiments, after incubation for 15 min at 37 °C, the reaction was stopped by adding Biomol® reagent (100 µL, Enzo Life Sciences, Inc., Farmingdale, NY, USA). The absorbance was measured at 650 nm after 5 min in a microplate reader (Synergy H4). The final concentration of DMSO in the reaction mixture was 5% (v/v). Fosfomycin was used as a reference in MurA assay. The percentage of RA was calculated in comparison to negative controls containing only 5% DMSO. […] The results are expressed as mean ± standard error.
# E. coli (ATCC 25922) = assay: Antibacterial susceptibility testing, MIC by broth microdilution, alone or with polymyxin B; format: cell-based, Escherichia coli; conditions: for MIC: Escherichia coli, read-out: MIC against E. coli; for MIC against E. coli with polymyxin B: with polymyxin B at sub-inhibitory concentration (half of the MIC, 0.49 µg/mL), permeabilized E. coli
# Experimental: Overnight subcultures of the test organism carried out on plate count agar medium (PCA) were used.
# After 24 h incubation at 37 °C with continuous shaking, absorbance was measured with an iMark micro-plate reader (Bio-Rad, Hercules, CA, USA) at 655 nm. Compound 1 was dissolved in DMSO, while compounds 4 and 6 were dissolved in ethanol or acetonitrile (ACN), respectively. Negative controls containing dissolution solvents at a final concentration of 2% or polymyxin B at 0.49 µg/mL were simultaneously carried out, and the growth was compared to the viability control, which contained only a culture medium. […] The large size of this glycopeptide antibiotic avoids its entrance into Gram-negative bacteria, while the addition of polymyxin B overcomes this inconvenience.
# [2] = system: methicillin-sensitive and resistant Staphylococcus aureus (MSSA and MRSA); conditions: growth curves of treated MSSA and MRSA; cited from earlier work
# [3] = time of preincubation: 10 min, read-out: IC50 Staphylococcus aureus MurA (converted)
# [4] = time of preincubation: 10 min, read-out: IC50 Escherichia coli MurA (converted)
# [5] = ATCC25922, compound alone, 24 h, 37 °C, Mueller–Hinton broth
# [6] = IC50 Staphylococcus aureus MurA, time of preincubation: 10 min
# [7] = IC50 Escherichia coli MurA, time of preincubation: 10 min
# [8] = residual activity at 100 µM, time of preincubation: 10 min, read-out: RA % Staphylococcus aureus MurA
# T2 sequence (P0A749 whole entry): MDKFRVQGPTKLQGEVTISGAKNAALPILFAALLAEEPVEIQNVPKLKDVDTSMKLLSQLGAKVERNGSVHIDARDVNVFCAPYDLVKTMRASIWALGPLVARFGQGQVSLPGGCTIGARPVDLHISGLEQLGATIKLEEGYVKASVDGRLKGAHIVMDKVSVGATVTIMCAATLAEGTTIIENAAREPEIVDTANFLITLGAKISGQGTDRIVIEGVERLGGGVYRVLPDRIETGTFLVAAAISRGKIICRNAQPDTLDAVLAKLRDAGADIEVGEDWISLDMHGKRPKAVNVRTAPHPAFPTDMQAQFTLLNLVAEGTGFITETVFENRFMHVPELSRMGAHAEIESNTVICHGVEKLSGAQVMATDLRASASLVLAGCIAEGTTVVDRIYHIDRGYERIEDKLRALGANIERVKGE
smiles,measurement,setting,value
"CC(C)c1cc2c(c(O)c1O)[C@@]13CCCC(C)(C)[C@@H]1[C@H](OC3=O)[C@H]2O [Compound 2, rosmanol]",IC50,[1]; [3],5.7 µM
same,IC50,Escherichia coli MurA; [4],12.9 µM
"CC(C)c1cc2c(c(O)c1O)[C@@]13CCCC(C)(C)[C@@H]1C[C@@H]2OC3=O [Compound 1, carnosol]",IC50,"[1]; time of preincubation = 0 min, read-out: IC50 Staphylococcus aureus MurA (converted)",61 µM
same,IC50,[1]; [3],1.1 µM
same,MIC,E. coli (ATCC 25922); [5],> 250 µg/mL
same,MIC against E. coli with polymyxin B,E. coli (ATCC 25922),125 µg/mL
same,IC50,"Escherichia coli MurA; time of preincubation = 0 min, read-out: IC50 Escherichia coli MurA (converted)",66 µM
same,IC50,Escherichia coli MurA; [4],2.8 µM
"CC(C)c1cc2c(cc1O)[C@@]1(C)CCC[C@@](C)(C(=O)O)[C@@H]1CC2 [Compound 9, 12-hydroxy-dehydroabietic acid]",IC50,[1]; [6],55.2 µM
same,IC50,Escherichia coli MurA; [4],49.4 µM
"COC(=O)[C@]12CCCC(C)(C)[C@@H]1CCc1cc(C(C)C)c(O)c(O)c12 [Compound 4, 20-methyl carnosate]",remaining activity at 100 µM,"[1]; read-out: RA % Staphylococcus aureus MurA, residual activity at 100 µM, time of preincubation: 10 min",0 to 28%
same,IC50,"[1]; IC50 Staphylococcus aureus MurA, time of preincubation = 0 min",67 µM
same,IC50,[1]; [6],3.4 µM
same,MIC,E. coli (ATCC 25922); [5],> 250 µg/mL
same,MIC against E. coli with polymyxin B,E. coli (ATCC 25922),3.9 µg/mL
same,remaining activity at 100 µM,Escherichia coli MurA; time of preincubation: 10 min,0 to 28%
same,IC50,"Escherichia coli MurA; IC50 Escherichia coli MurA, time of preincubation = 0 min",48 µM
same,IC50,Escherichia coli MurA; [7],2.8 µM
"CN[C@H](CC(C)C)C(=O)N[C@H]1C(=O)N[C@@H](CC(N)=O)C(=O)N[C@H]2C(=O)N[C@H]3C(=O)N[C@H](C(=O)N[C@H](C(=O)O)c4cc(O)cc(O)c4-c4cc3ccc4O)[C@H](O)c3ccc(c(Cl)c3)Oc3cc2cc(c3O[C@@H]2O[C@H](CO)[C@@H](O)[C@H](O)[C@H]2O[C@H]2C[C@](C)(N)[C@H](O)[C@H](C)O2)Oc2ccc(cc2Cl)[C@H]1O [Vancomycin, vancomycin, reference compound]",MIC,"E. coli (ATCC 25922); ATCC25922, 24 h",250 µg/mL
same,MIC against E. coli with polymyxin B,E. coli (ATCC 25922),62.5 µg/mL
"CC(C)c1cc2c(c(O)c1O)[C@@]1(C(=O)O)CCCC(C)(C)[C@@H]1CC2 [Compound 3, carnosic acid]",IC50,[1]; [6],12 µM and 12.3 µM
same,IC50,Escherichia coli MurA; [7],25 µM and 25.1 µM
COC(=O)[C@]1(C)CCC[C@]2(C)c3cc(O)c(/C(C)=N/O)cc3CC[C@@H]12 [Compound 12],remaining activity at 100 µM,[1]; [8],72 to 100%
same,"delay/reduction in the growth rate of MSSA and MRSA, until time",[2],up to 6 h
"C[C@@H]1O[C@@H]1P(=O)(O)O [fosfomycin, reference compound]",remaining activity at 100 µM,[1]; [8],0%
same,IC50,[1]; [3],0.3 µM
same,remaining activity at 100 µM,Escherichia coli MurA; time of preincubation: 10 min,0%
same,IC50,Escherichia coli MurA; [7],0.21 µM
CC/C(=N\O)c1cc2c(cc1O)[C@@]1(C)CCC[C@@](C)(C(=O)OC)[C@@H]1CC2 [Compound 13],remaining activity at 100 µM,[1]; [8],72 to 100%
COC(=O)[C@]1(C)CCC[C@]2(C)c3cc(O)c(/C(C)=N/O)cc3/C(=N/O)C[C@@H]12 [Compound 14],remaining activity at 100 µM,[1]; [8],72 to 100%
"CC(C)c1cc2c3c(c1O)OC(=O)[C@@]31CCCC(C)(C)[C@@H]1CC2 [Compound 6, carnosic acid-γ-lactone]",IC50,[1]; [3],7.9 µM
same,MIC,E. coli (ATCC 25922); [5],> 250 µg/mL
same,MIC against E. coli with polymyxin B,E. coli (ATCC 25922),125 µg/mL
same,IC50,Escherichia coli MurA; [7],4.8 µM
